The target in experiment [1] is T1, T. cruzi CYP51 (Trypanosoma cruzi, UniProt Q7Z1V1).
T1 construct: had the first 21 residues upstream of K22 replaced with the fragment MAKKKKK; His6 (C); made in house
As to the kind of experiment: Primary HTS in two-wavelength mode. It counts as binding. Particulars: 2 µM CYP51, 528 measurements.

Experiment [2] has as its system T. cruzi trypomastigote strain CAI/72 in C2C12 myoblasts. As to the kind of experiment: Trypanocidal assay. It counts as cell-based, Trypanosoma cruzi. The following applies: 14 days treatment, then one week compound-free. As to the method: Compounds cross-validated with low EC50 against T. cruzi infected cells were further evaluated to determine the “cidal” concentration at which host cells are effectively cured, using the protocol adapted from Engel et al 1998 [30]. To allow long term treatment and avoid culture overgrowth, C2C12 myoblasts were seeded at low density in 96 well plates (10^3 cells/well) and cultured with DMEM H-21 medium supplemented with low FBS concentration (1%), 25 mM HEPES, 2 mM L-glutamine, 100 U/ml penicillin and 100 µg/ml streptomycin. The cells were infected with T. cruzi trypomastigote strain CAI/72 (5 parasites/cell) for 24 h and treated with 0, 0.04, 0.12, 0.37, 1.10, 3.30 or 10 µM test compounds in 100 µl of medium for 14 days. During the course of treatment, medium supplemented with test compounds was replaced every 72 h. After 14 days, drug pressure was withdrawn and incubation continued in the compound-free medium for another week, during which cultures were monitored for reappearance of T. cruzi trypomastigotes in the supernatant.

Experiment [3] has as its system T. cruzi-infected skeletal myoblasts (intracellular amastigotes). The experiment can be described thus: Hit cross-validation in T. cruzi-infected mammalian cells (image-based assay). It is filed as cell-based, Trypanosoma cruzi. The following applies: Trypanosoma cruzi, Myoblast, 72 h, T. cruzi-infected myoblasts, 72 h treatment; read-out: EC50 in image-based HTS cross-validation assay.

In experiment [4] the test system is sterol biosynthesis in T. cruzi amastigotes. The experiment can be described thus: Lipid analysis of T. cruzi amastigotes (GC-MS of membrane sterols). It counts as cell-based, Trypanosoma cruzi. Particulars: amastigotes in C2C12 myoblasts, 24 h drug treatment, concentrations 5x below cidal; posaconazole 100 nM. Here is the method:
To grow intracellular amastigotes for lipid analysis, C2C12 mouse skeletal myoblasts (4×10^6 cells) cultured in 150 cm^2 flasks as described above were infected with 80×10^6 trypomastigotes for 24 h. The cultures were treated with test compounds 72 h post-infection at concentrations 5× below cidal to avoid completely killing the parasites. Posaconazole at 100 nM was used as a positive control. […] Cells were harvested 96 h post-infection and after 24 h of drug treatment. Cell detachment was initiated by brief treatment with 10 ml of 0.25% trypsin in PBS, followed promptly by replacement with 10 ml of fresh media containing FBS. Harvested cells were washed 3× with 25 ml of PBS to remove FBS and released trypomastigotes. The suspension of infected cells was then transferred to a glass tube and centrifuged at 2000 rpm for 5 min. After washing with PBS, 2 ml of chloroform-methanol solution (2∶1 ratio) was added to re-suspend the cell pellet. Organic solvents were then evaporated under N2 flow, allowing the pellet to dry.
For total lipid extraction, the dry cell pellet was treated with 2 ml chloroform for 24 h. Polar molecules were removed by washing the organic phase 3× with 3 ml water. The organic phase containing the sterols was subsequently dried on an evaporator under N2 flow. The lipids were re-suspended in 2 ml of chloroform-methanol (9∶1 ratio), washed again 3× with 3 ml water, dried under N2 flow and re-suspended in acetonitrile. After an additional wash 3× with 3 ml water, the acetonitrile was dried under an N2 stream. Extracted dry sterols were re-dissolved in hexane and derivatized with N,N-bis(trimethylsilyl)-2,2,2-trifluoroacetamide (BSTFA) (Pierce) by incubating at 37°C for at least 2 hours. Sterols as their trimethylsilyl (TMS) derivatives were analyzed by gas chromatography and mass spectrometry (GC-MS). GC-MS analysis and lipid identification were performed as described previously.

Entries after “also recorded” stand apart in the source; their conditions may differ.

T1 sequence (Q7Z1V1 15-481, looked up, natural form): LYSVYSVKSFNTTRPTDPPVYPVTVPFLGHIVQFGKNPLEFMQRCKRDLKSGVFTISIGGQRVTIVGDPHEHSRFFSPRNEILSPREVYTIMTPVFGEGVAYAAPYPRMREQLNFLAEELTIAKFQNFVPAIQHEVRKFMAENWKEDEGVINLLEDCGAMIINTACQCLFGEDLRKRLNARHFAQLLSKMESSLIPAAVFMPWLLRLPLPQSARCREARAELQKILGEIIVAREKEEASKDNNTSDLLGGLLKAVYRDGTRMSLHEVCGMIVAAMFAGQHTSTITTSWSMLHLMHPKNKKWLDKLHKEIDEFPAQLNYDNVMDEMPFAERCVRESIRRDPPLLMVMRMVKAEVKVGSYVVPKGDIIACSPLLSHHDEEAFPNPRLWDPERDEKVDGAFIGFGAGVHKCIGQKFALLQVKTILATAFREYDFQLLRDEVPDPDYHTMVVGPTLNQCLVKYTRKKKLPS

In the case of `CC1CCC(C(=O)NC(Cc2c[nH]c3ccccc23)C(=O)Nc2ccncc2)CC1` (stereo not drawn) [reference, α-[(4-methylcyclohexyl)carbonylamino]-N-4-pyridinyl-1H-indole-3-propanamide], the “ΔA = A425−A390” value in experiment [1] amounted to 0.043±0.004.
In experiment [2], `CC[C@@H]([C@H](C)O)n1ncn(-c2ccc(N3CCN(c4ccc(OC[C@@H]5CO[C@@](Cn6cncn6)(c6ccc(F)cc6F)C5)cc4)CC3)cc2)c1=O` [posaconazole, reference compound] had a Trypanocidal concentration of 0.6 nM. In experiment [3], the EC50 (commonly the concentration at which the effect is half-maximal) came to 1 nM. Moreover, the “Effect on membrane sterol composition by GC-MS” value in experiment [4] is “lanosterol (f) and eburicol (h) dominated the GC-MS traces; also recorded: fecosterol (e) was completely inhibited”.
